Results published in publication PMC5146859, “Phase 1/2 study of pacritinib, a next generation JAK2/FLT3 inhibitor, in myelofibrosis or other myeloid malignancies” (Journal of Hematology & Oncology, 2016).
Marks after values point to notes of the source that are not given here.

What was measured:
patients with MF [1] = test: Phase 2 MF Quality of Life and Symptoms Assessment Tool; assay type: in vivo, human; details: phase 2, 400 mg QD
Procedure: In phase 2, abdominal MRI to assess spleen and liver volume was performed on day 1 of cycles 1, 4, and 7 and then day 1 of every third cycle through cycle 25. Spleen size (length) was also assessed by manual palpation with each scheduled physical examination. The phase 2 study protocol was amended in September 2009 to include the MF Quality of Life and Symptoms Assessment Tool. […] The instrument was administered pre-dose on day 1 of cycles 1, 2, 4, 7, and 10 and then on day 1 of every third cycle through cycle 25.
The primary endpoint of the phase 2 component was the proportion of the efficacy population who achieved a ≥35% reduction in spleen volume from baseline at week 24, as measured by MRI. Spleen response rate was also assessed in terms of a ≥35% reduction in spleen volume by MRI up to week 24 and end of treatment and as a ≥50% reduction in spleen length by physical examination up to week 24 and end of treatment. Duration of response was not analyzed due to limitations in the proportion of responders. An exploratory endpoint was the proportion of patients with a ≥50% reduction in MF Quality of Life and Symptoms Assessment Tool at week 24 compared with baseline.

patients with MF [2] = test: Phase 2 hematologic parameters and transfusions; assay type: in vivo, human
Procedure: At screening/baseline, patients underwent a medical history, physical examination, vital sign assessment, ECOG PS assessment, electrocardiogram, and assessment of hematologic parameters and blood chemistry. Hematology/blood chemistry, physical examinations, and vital sign assessments were performed throughout treatment. Toxicity was assessed using the National Cancer Institute Common Terminology Criteria for Adverse Events (NCIC-CTCAE), version 3.0, with relationship to treatment assigned by the investigator and were recorded from the first dose of pacritinib until 30 days after the last dose. Bone marrow biopsy and/or aspirate samples were drawn at baseline, on day 1 of cycle 4 and cycle 10, as clinically indicated, and at the termination visit. Disease response and progression were determined using the relevant International Working Group (IWG) criteria.

[3] = phase 2, during the study, n = 31

SMILES: C1=C/COCc2cc(ccc2OCCN2CCCC2)Nc2nccc(n2)-c2cccc(c2)COC/1 [pacritinib, 11-(2-pyrrolidin-1-yl-ethoxy)-14,19-dioxa-5,7,26-triaza-tetracyclo[19.3.1.1(2,6). 1(8,12)]heptacosa-1(25),2(26),3,5,8,10,12(27),16,21,23-decaene]
- Individual symptoms and overall quality of life score (patients with MF [1]): Improvement was seen in each of the individual symptoms
- Bone pain, Mean percent change from baseline at Week 24 (SD) (patients with MF [1]; N = 11): -51.6 (43.04) %
- Night sweats, Mean percent change from baseline at Week 24 (SD) (patients with MF [1]; N = 11): -31.3 (85.45) %
- Itching (pruritus), Mean percent change from baseline at Week 24 (SD) (patients with MF [1]; N = 12): -62.6 (45.35) %
- Abdominal pain, Mean percent change from baseline at Week 24 (SD) (patients with MF [1]; N = 16): -54.2 (58.14) %
- Overall quality of life, Mean percent change from baseline at Week 24 (SD) (patients with MF [1]; N = 16): -38.1 (49.50) %
- Early satiety, Mean percent change from baseline at Week 24 (SD) (patients with MF [1]; N = 17): -42.2 (37.53) %
- Fatigue – worst, Mean percent change from baseline at Week 24 (SD) (patients with MF [1]; N = 18): -12.5 (63.55) %
- Total symptom score, Mean percent change from baseline at Week 24 (SD) (patients with MF [1]; N = 18): -27.5 (39.01) %
- Evaluable patients with ≥50% reduction in MF Quality of Life and Symptom Assessment total score (patients with MF [1]; week 24 (7/18)): 38.9%
- RBC transfusions, median (patients with MF [2]; phase 2, 16 transfused patients): 11 units
- Hematocrit, Median % change from baseline (patients with MF [2]; phase 2, Termination): 0.48%
- Hemoglobin, Median % change from baseline (patients with MF [2]; phase 2, Termination): 5.0%
- Leukocytes, Median % change from baseline (patients with MF [2]; phase 2, Termination): 15.49%
- Lymphocytes, Median % change from baseline (patients with MF [2]; phase 2, Termination): 39.87%
- Neutrophils, Median % change from baseline (patients with MF [2]; phase 2, Termination): -9.19%
- Platelets, Median % change from baseline (patients with MF [2]; phase 2, Termination): -5.4%
- Red blood cells, Median % change from baseline (patients with MF [2]; phase 2, Termination): 0.18%
- Hematocrit, Median % change from baseline (patients with MF [2]; phase 2, Week 2): 2.92%
- Hemoglobin, Median % change from baseline (patients with MF [2]; phase 2, Week 2): 5.3%
- Leukocytes, Median % change from baseline (patients with MF [2]; phase 2, Week 2): -5.93%
- Lymphocytes, Median % change from baseline (patients with MF [2]; phase 2, Week 2): 26.93%
- Neutrophils, Median % change from baseline (patients with MF [2]; phase 2, Week 2): -16.44%
- Platelets, Median % change from baseline (patients with MF [2]; phase 2, Week 2): -1.6%
- Red blood cells, Median % change from baseline (patients with MF [2]; phase 2, Week 2): 2.23%
- Hematocrit, Median % change from baseline (patients with MF [2]; phase 2, Week 4): 0.00%
- Hemoglobin, Median % change from baseline (patients with MF [2]; phase 2, Week 4): 2.2%
- Leukocytes, Median % change from baseline (patients with MF [2]; phase 2, Week 4): -26.77%
- Lymphocytes, Median % change from baseline (patients with MF [2]; phase 2, Week 4): -6.84%
- Neutrophils, Median % change from baseline (patients with MF [2]; phase 2, Week 4): -26.43%
- Platelets, Median % change from baseline (patients with MF [2]; phase 2, Week 4): -20.3%
- Red blood cells, Median % change from baseline (patients with MF [2]; phase 2, Week 4): 1.41%
- Hematocrit, Median % change from baseline (patients with MF [2]; phase 2, Week 6): 0.64%
- Hemoglobin, Median % change from baseline (patients with MF [2]; phase 2, Week 6): 9.1%
- Leukocytes, Median % change from baseline (patients with MF [2]; phase 2, Week 6): -5.58%
- Lymphocytes, Median % change from baseline (patients with MF [2]; phase 2, Week 6): 31.7%
- Neutrophils, Median % change from baseline (patients with MF [2]; phase 2, Week 6): -9.32%
- Platelets, Median % change from baseline (patients with MF [2]; phase 2, Week 6): -3.6%
- Red blood cells, Median % change from baseline (patients with MF [2]; phase 2, Week 6): -1.65%
- Hematocrit, Median % change from baseline (patients with MF [2]; phase 2, Week 8): 2.01%
- Hemoglobin, Median % change from baseline (patients with MF [2]; phase 2, Week 8): 4.5%
- Leukocytes, Median % change from baseline (patients with MF [2]; phase 2, Week 8): -5.50%
- Lymphocytes, Median % change from baseline (patients with MF [2]; phase 2, Week 8): 12.65%
- Neutrophils, Median % change from baseline (patients with MF [2]; phase 2, Week 8): -19.76%
- Platelets, Median % change from baseline (patients with MF [2]; phase 2, Week 8): -4.5%
- Red blood cells, Median % change from baseline (patients with MF [2]; phase 2, Week 8): 2.14%
- Hematocrit, Median % change from baseline (patients with MF [2]; phase 2, Week 10): -3.57%
- Hemoglobin, Median % change from baseline (patients with MF [2]; phase 2, Week 10): 8.2%
- Leukocytes, Median % change from baseline (patients with MF [2]; phase 2, Week 10): 7.90%
- Lymphocytes, Median % change from baseline (patients with MF [2]; phase 2, Week 10): 52.34%
- Platelets, Median % change from baseline (patients with MF [2]; phase 2, Week 10): -3.1%
- Red blood cells, Median % change from baseline (patients with MF [2]; phase 2, Week 10): -1.37%
- Neutrophils, Median % change from baseline (patients with MF [2]; phase 2, Week 10, n = 19): -1.44^b %
- Hematocrit, Median % change from baseline (patients with MF [2]; phase 2, Week 12): -3.31%
- Hemoglobin, Median % change from baseline (patients with MF [2]; phase 2, Week 12): -0.5%
- Leukocytes, Median % change from baseline (patients with MF [2]; phase 2, Week 12): -21.83%
- Lymphocytes, Median % change from baseline (patients with MF [2]; phase 2, Week 12): 20.88%
- Neutrophils, Median % change from baseline (patients with MF [2]; phase 2, Week 12): -31.39%
- Platelets, Median % change from baseline (patients with MF [2]; phase 2, Week 12): -7.7%
- Red blood cells, Median % change from baseline (patients with MF [2]; phase 2, Week 12): -1.81%
- Hematocrit, Median % change from baseline (patients with MF [2]; phase 2, Week 16): 3.11%
- Hemoglobin, Median % change from baseline (patients with MF [2]; phase 2, Week 16): 8.6%
- Leukocytes, Median % change from baseline (patients with MF [2]; phase 2, Week 16): -15.09%
- Lymphocytes, Median % change from baseline (patients with MF [2]; phase 2, Week 16): 22.22%
- Neutrophils, Median % change from baseline (patients with MF [2]; phase 2, Week 16): -33.04%
- Platelets, Median % change from baseline (patients with MF [2]; phase 2, Week 16): -20.1%
- Red blood cells, Median % change from baseline (patients with MF [2]; phase 2, Week 16): 6.16%
- Hematocrit, Median % change from baseline (patients with MF [2]; phase 2, Week 20): -1.30%
- Hemoglobin, Median % change from baseline (patients with MF [2]; phase 2, Week 20): 5.8%
- Leukocytes, Median % change from baseline (patients with MF [2]; phase 2, Week 20): -25.83%
- Lymphocytes, Median % change from baseline (patients with MF [2]; phase 2, Week 20): 37.07%
- Neutrophils, Median % change from baseline (patients with MF [2]; phase 2, Week 20): -32.93%
- Platelets, Median % change from baseline (patients with MF [2]; phase 2, Week 20): -11.7%
- Red blood cells, Median % change from baseline (patients with MF [2]; phase 2, Week 20): -0.30%
- Hematocrit, Median % change from baseline (patients with MF [2]; phase 2, Week 24): 3.01%
- Hemoglobin, Median % change from baseline (patients with MF [2]; phase 2, Week 24): 7.3%
- Leukocytes, Median % change from baseline (patients with MF [2]; phase 2, Week 24): -30.34%
- Lymphocytes, Median % change from baseline (patients with MF [2]; phase 2, Week 24): 44.14%
- Neutrophils, Median % change from baseline (patients with MF [2]; phase 2, Week 24): -43.24%
- Platelets, Median % change from baseline (patients with MF [2]; phase 2, Week 24): -23.7%
- Red blood cells, Median % change from baseline (patients with MF [2]; phase 2, Week 24): 2.46%
- Hematocrit, Median % change from baseline (patients with MF [2]; phase 2, Week 36): -2.91%
- Hemoglobin, Median % change from baseline (patients with MF [2]; phase 2, Week 36): -0.4%
- Leukocytes, Median % change from baseline (patients with MF [2]; phase 2, Week 36): -18.32%
- Lymphocytes, Median % change from baseline (patients with MF [2]; phase 2, Week 36): 58.89%
- Neutrophils, Median % change from baseline (patients with MF [2]; phase 2, Week 36): -33.96%
- Platelets, Median % change from baseline (patients with MF [2]; phase 2, Week 36): -23.4%
- Red blood cells, Median % change from baseline (patients with MF [2]; phase 2, Week 36): -3.15%
- Hematocrit, Median % change from baseline (patients with MF [2]; phase 2, Week 48): -2.39%
- Hemoglobin, Median % change from baseline (patients with MF [2]; phase 2, Week 48): 10.1%
- Leukocytes, Median % change from baseline (patients with MF [2]; phase 2, Week 48): -5.13%
- Lymphocytes, Median % change from baseline (patients with MF [2]; phase 2, Week 48): 61.70%
- Neutrophils, Median % change from baseline (patients with MF [2]; phase 2, Week 48): -28.84%
- Platelets, Median % change from baseline (patients with MF [2]; phase 2, Week 48): -16.3%
- Red blood cells, Median % change from baseline (patients with MF [2]; phase 2, Week 48): -3.87%
- Hematocrit, Median % change from baseline (patients with MF [2]; phase 2, Week 60): 3.70%
- Hemoglobin, Median % change from baseline (patients with MF [2]; phase 2, Week 60): 4.7%
- Leukocytes, Median % change from baseline (patients with MF [2]; phase 2, Week 60): -28.21%
- Lymphocytes, Median % change from baseline (patients with MF [2]; phase 2, Week 60): 40.43%
- Neutrophils, Median % change from baseline (patients with MF [2]; phase 2, Week 60): -40.17%
- Platelets, Median % change from baseline (patients with MF [2]; phase 2, Week 60): -31.3%
- Red blood cells, Median % change from baseline (patients with MF [2]; phase 2, Week 60): 1.48%
- Patients who received RBC transfusions (patients with MF [2]; [3]): 51.6%
- Patients who received platelet transfusions (patients with MF [2]; [3]): 9.7%
- Platelet transfusions, median (patients with MF [2]; phase 2, three transfused patients): 3 units
- Median neutrophil count, span over visits (patients with MF [2]; phase 2, through week 60): 3.83 to 6.00 × 10^9/L
- Median platelet count, span over visits (patients with MF [2]; phase 2, through week 60): 89 to 155 × 10^9/L
- Patients with hemoglobin levels <8 g/L (patients with MF [2]; phase 2, week 24 (1/20)): 5.0%
- Patients with leukocyte counts >25 × 10^9/L (patients with MF [2]; phase 2, week 24 (2/20)): 10.0%
- Patients with platelet counts <50 × 10^9/L (patients with MF [2]; phase 2, week 24 (2/20)): 10.0%
- Patients with hemoglobin levels <10 g/L (patients with MF [2]; phase 2, week 24 (10/20)): 50.0%
- Patients with platelet counts <100 × 10^9/L (patients with MF [2]; phase 2, week 24 (10/20)): 50.0%
